Source: patent US6562834B2, “Combination comprising camptothecin and a stilbene derivative for the treatment of cancer” (Aventis Pharma S. A., priority 2000, dated 2003)

Tested on: colon adenocarcinoma C51
Assay: Antitumor effect and safety of CPT-11, combretastatin and their combinations in mice bearing colon adenocarcinoma C51
Assay type: in vivo
Procedure: This efficacy may be quantified, for example by the log10 cells killed, which is determined by the following formula:
log10 cells killed=T−C(days)/3.32×Td
in which T−C represents the time taken for the cells to grow, which is the mean time in days for the tumors of the treated group (T) to reach a predetermined value (1 g for example) and the tumors of the control group (C) to reach the same value, and Td represents the time in days needed for the volume of the tumors in the control group to double. (T. H. Corbett et al., Cancer, 40, 2660.2680 (1977); F. M. Schabel et al., Cancer Drug Development, Part B, Methods in Cancer Research, 17, 3-51, New York, Academic Press Inc. (1979)). A product is considered to be active if log10 cells killed is greater than or equal to 0.7. A product is considered to be very active if the log10 cells killed is greater than 2.8.
The effect of the combination of CPT-11 and combretastatin was evaluated in mice bearing colon adenocarcinoma C51. CPT-11 was given orally on days two through five, […], at different dosage levels. Combretastatin was administered intravenously, two times a day, on days one to five. In the combination arms, three different dosages of CPT-11 were administered orally twice daily on days two through five and three different dosages of combretastatin were administered intravenously twice a day on days one through five.
Combretastatin, administered intravenously, and CPT-11, administered orally, were tested in several different schedules as reported in Table IV. When used as a single agent, combretastatin was administered twice a day for five consecutive days. When CPT-11 was administered alone, it was given once a day for four consecutive days.
When administered sequentially, two schedules were used. When combretastatin was given first, it was administered on day 1, followed by administration of CPT-11 once a day on days 2-5. When CPT-11 was the first compound given in the sequence, it was administered once a day on days 1-4, followed by combretastatin on day 5.

CCc1c2c(nc3ccc(OC(=O)N4CCC(N5CCCCC5)CC4)cc13)-c1cc3c(c(=O)n1C2)COC(=O)[C@]3(O)CC [CPT-11, irinotecan]
highest non-toxic dose (CPT-11 oral, single agent, mice): 400 mg/kg | Log10 Cell Kill (single agent CPT-11 oral 400 mg/kg (highest non-toxic dose), Colon 51, tumor size 400-500 mg, Td = 2.4 d): 1.1

Combretastatin
Colon 51 PR (partial response: mice with decrease in tumor volume of at least 50% / mice tested) (single agent combretastatin IV 116.5 mg/kg/injection (highest non-toxic dose)): 5/5 | Log10 Cell Kill (single agent combretastatin IV 116.5 mg/kg/injection (highest non-toxic dose), 2 x/day days 1-5, Colon 51): 1.3
